Test results taken from US5409934A, “Xanthine derivatives” (priority 1990, dated 1995).

Experiments:
PDE (V) = PDE (V) (Sus scrofa, UniProt A0A287B475); experiment: Inhibition of phosphodiesterase PDE V (cGMP-specific), boronate column method; format: biochemical, porcine; conditions: 37° C., pH 7.5; read-out: Inhibition of PDE expressed as IC50, PDE (V)
Description: The latter were separated by a cGMP-affinity column. The resolved PDEs were separately rechromatographed on a 1 ml Mono Q column. cGMP-selective PDE (PDE V) was obtained from porcine lung using chromatography on DEAE-cellulose and Mono Q columns; a calmodulin-affinity column was used to remove residual PDE I activity. PDEV This isoenzyme had high affinity for cGMP. […] PDE activity was assayed by the boronate column method as previously described (Reeves et al., 1987). The enzymes were assayed by incubation at 37° C. for 4-30 min in 50 mM Tris, 5 mM MgCl2, pH 7.5 with ^3 H-labelled cyclic nucleotide (4×105 disintegrations min^-1) and ^14 C-labelled nucleotide 5'-monophosphate (3×10^3 disintegrations min^-1). The assay was stopped by boiling, and the ^3 H-labelled 5'-monophosphate product separated from substrate on boronate columns. […] The column was extensively washed with the same buffer, and the 5'-nucleotide eluted with 6mL of 0.25M acetic acid.

PDE (IV) = experiment: Inhibition of phosphodiesterase PDE IV (cAMP-specific), boronate column method; format: biochemical, guinea-pig; conditions: cAMP as substrate, 37° C., pH 7.5; read-out: Inhibition of PDE expressed as IC50, PDE (IV)
Description: (§1) The Ca^2+ /calmodulin-stimulated PDE (PDE I, see Table 1 and Beavo and Reifsynder (1990) for nomenclature) was prepared from bovine cardiac ventricle. Following chromatography on a Mono Q column, the fractions showing stimulation of PDE activity by CA^2+ and calmodulin were pooled and further purified on a calmodulin-affinity column. […] Initial chromatography on a 20 ml Mono Q column resolved PDE III from a peak that contained both PDE II and PDE IV. The latter were separated by a cGMP-affinity column. The resolved PDEs were separately rechromatographed on a 1 ml Mono Q column. cGMP-selective PDE (PDE V) was obtained from porcine lung using chromatography on DEAE-cellulose and Mono Q columns; a calmodulin-affinity column was used to remove residual PDE I activity.
PDE activity was assayed by the boronate column method as previously described (Reeves et al., 1987). The enzymes were assayed by incubation at 37° C. for 4-30 min in 50 mM Tris, 5 mM MgCl2, pH 7.5 with ^3 H-labelled cyclic nucleotide (4×105 disintegrations min^-1) and ^14 C-labelled nucleotide 5'-monophosphate (3×10^3 disintegrations min^-1). The assay was stopped by boiling, and the ^3 H-labelled 5'-monophosphate product separated from substrate on boronate columns. The reaction mixture was diluted with 0.5 mL 100 mM HEPES [N-(2-hydroxyethyl)piperazine-N ^1 -2-ethanesulfonic acid], 100 mM NaCl, pH 8.5, and applied to the column. The column was extensively washed with the same buffer, and the 5'-nucleotide eluted with 6mL of 0.25M acetic acid.

blood eosinophilia = experiment: Sephadex induced blood eosinophilia in the rat; format: in vivo, Male Charles River Sprague Dawley rats; conditions: 30 min before each Sephadex injection, n = 6
Description: Induction of blood eosinonhilia and the effects of drugs.
Male Charles River Sprague Dawley rats weighing between 270 to 400 g were used.
The method used was a modification of that described by Laycock et al (Int. Arch. Appl. Immunol, (1986). 81, 363).
Sephadex G200, particle size 40 to 120 micron, was suspended in isotonic saline at 0.5 mg/ml, and stored for 48 h at 4° C. 1 ml of the suspension was given intravenously to rats on days 0, 2 and 5. The test compound was given before the Sephadex on each occasion, with a contact time expected to give maximum activity at the time of the Sephadex administration. Blood was taken from the tail vein of the rats on day 7 for the determination of total and differential leucocyte counts.
A control group of at least 6 animals was included each time a compound was evaluated. The control group received Sephadex and the vehicle without test compound. The results in the drug treated animals were compared with the control group.
[…] of blood, taken from the tail vein of the rats, were added to 10 ml of Isoton II and, within 30rain, Zapoglobin (3 drops) was added, to lyse the erythrocytes. Five minutes later the total cell count was determined using a Coulter Counter Model DN. […] A minimum of 400 cells were counted on each slide.
Probability values were calculated using the Student's t test. […]

[1] = test system: cGMP-stimulated PDE (PDE II); experiment: Kinetic properties of phosphodiesterase isoenzyme II; format: biochemical, guinea-pig; conditions: substrate of PDE II; enzyme displayed positive cooperativity
Description: as §1, with “Following” for “The Ca^2+ /calmodulin-stimulated PDE (PDE I, see Table 1 and Beavo and Reifsynder (1990) for nomenclature) was prepared from bovine cardiac ventricle. Following”
(§2) The assay was stopped by boiling, and the ^3 H-labelled 5'-monophosphate product separated from substrate on boronate columns. The reaction mixture was diluted with 0.5 mL 100 mM HEPES [N-(2-hydroxyethyl)piperazine-N ^1 -2-ethanesulfonic acid], 100 mM NaCl, pH 8.5, and applied to the column. The column was extensively washed with the same buffer, and the 5'-nucleotide eluted with 6mL of 0.25M acetic acid.

[2] = test system: cGMP-specific PDE (PDE V); experiment: Kinetic properties of phosphodiesterase isoenzyme V; format: biochemical, porcine; conditions: substrate of PDE V
Description: as §1, with “Following” for “The Ca^2+ /calmodulin-stimulated PDE (PDE I, see Table 1 and Beavo and Reifsynder (1990) for nomenclature) was prepared from bovine cardiac ventricle. Following”
PDEV This isoenzyme had high affinity for cGMP.
as §2

[3] = test system: Ca^2+ /calmodulin-stimulated PDE (PDE I); experiment: Kinetic properties of phosphodiesterase isoenzyme I; format: biochemical, bovine; conditions: substrate of PDE I
Description: as §1, with “Following” for “The Ca^2+ /calmodulin-stimulated PDE (PDE I, see Table 1 and Beavo and Reifsynder (1990) for nomenclature) was prepared from bovine cardiac ventricle. Following”
as §2

[4] = test system: cGMP-inhibited PDE (PDE III); experiment: Kinetic properties of phosphodiesterase isoenzyme III; format: biochemical, guinea-pig; conditions: substrate of PDE III
Description: as §1, with “Following” for “The Ca^2+ /calmodulin-stimulated PDE (PDE I, see Table 1 and Beavo and Reifsynder (1990) for nomenclature) was prepared from bovine cardiac ventricle. Following”
as §2

[5] = test system: cAMP-specific PDE (PDE IV); experiment: Kinetic properties of phosphodiesterase isoenzyme IV; format: biochemical, guinea-pig; conditions: substrate of PDE IV, class symbol
Description: as §1, with “Following” for “The Ca^2+ /calmodulin-stimulated PDE (PDE I, see Table 1 and Beavo and Reifsynder (1990) for nomenclature) was prepared from bovine cardiac ventricle. Following”
as §2

SMILES | IC50 (PDE (V)) [µM] | IC50 (PDE (IV)) [µM] | also measured
Nc1nc2c(c(=O)n(CC3CC3)c(=O)n2CC2CC2)n1S(=O)(=O)c1ccccc1 [Example 1, 8-Amino-7-benzenesulphonyl-1,3-di(cyclopropylmethyl)xanthine] | 4 | 3 | 
COc1ccc(S(=O)(=O)n2c(N)nc3c2c(=O)n(CC2CC2)c(=O)n3CC2CC2)cc1 [Example 2, 8-Amino-1,3-di(cyclopropylmethyl)-7-(4-methoxybenzenesulphonyl)xanthine] | 0.4 | 3 | Eosinophilia, % of Control Mean ± SEM (blood eosinophilia; 20 mg/kg orally, *p < 0.05): 62 ± 7 % of Control; Eosinophilia, % of Control Mean ± SEM (blood eosinophilia; 50 mg/kg orally, **p < 0.01): 51 ± 7 % of Control
COc1ccc(S(=O)(=O)n2c(N)nc3c2c(=O)n(CC2CC2)c(=O)n3CC2CC2)cc1OC [Example 3, 8-Amino-1,3-di-(cyclopropylmethyl)-7-(3,4-dimethoxy-benzenesulphonyl)xanthine] | 0.2 | 4 | 
COc1ccc(S(=O)(=O)n2c(Cl)nc3c2c(=O)n(CC2CC2)c(=O)n3CC2CC2)cc1 [Example 7, 8-Chloro-1,3-di(cyclopropylmethyl)-7-(4-methoxybenzenesulphonyl)xanthine] | > 100 | 11 | 
Nc1nc2c(ncn2[C@@H]2O[C@@H]3COP(=O)(O)O[C@H]3[C@H]2O)c(=O)[nH]1 [cGMP] |  |  | Km [1]: 14 µM; Km [2]: 1 µM; Km [3]: 5 µM; Km [4]: 0.1 µM; Km [5]: > 100 µM

Now from value to molecule, other results behind:

IC50 (PDE (V)) [µM] | IC50 (PDE (IV)) [µM] | SMILES | also measured
 | 4 | Nc1nc2c(c(=O)n(CC3CC3)c(=O)n2CC2CC2)n1S(=O)(=O)c1ccc(Cl)cc1 [Example 9, 8-Amino-1,3-di(cylcopropylmethyl)-7-(4-chlorobenzenesulphonyl)xanthine] | 
7 | > 100 | COc1ccc(Cn2c(N(S(=O)(=O)c3ccccc3)S(=O)(=O)c3ccccc3)nc3c2c(=O)n(CC2CC2)c(=O)n3CC2CC2)cc1 [Example 23, 1,3-Di(cyclopropylmethyl)-8-di(benzenesulphonyl)amino-7-(4-methoxy-benzyl)xanthine] | 
 | > 100 | COc1ccc(S(=O)(=O)Nc2nc3c(c(=O)n(CC4CC4)c(=O)n3CC3CC3)n2Cc2cc(OC)c(OC)c(OC)c2)cc1 [Example 25, 1,3-Di(cyclopropylmethyl)-8-(4-methoxybenzenesulphonamido)-7-(3,4,5-trimethoxybenzyl)xanthine] | 
